Values quoted from earlier work in US20080014261A1, “Non-narcotic biphasic release compositions and methods for treatment of coughing, sneezing, rhinorrhea, and/or nasal obstruction” (priority 2006, published 2008).

Settings: in vivo

- plasma half life: one
SMILES: COc1ccccc1OCC(O)CO (stereo not shown) [Guaifenesin, 3-(2-methoxyphenoxy)-1,2 propanediol]
